Experimental data published in ChEMBL document CHEMBL1201862, “PubChem BioAssay data set” (2004).
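Five compound concentrations were applied to cells in 96-well plates for 48 hours; endpoints were derived by simple linear interpolation of the resulting dose-response curve. GI50 marks 50% less growth.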 The source made the active and inactive calls. Rule as the data show it: active = GI50 up to about 1.1 µM and inactive = higher.

Columns and labels:
Assay in all cases: DTP human tumour cell line panel, 48 h
COLO 205 = test system: COLO 205
DMS-273 = test system: DMS-273
EKVX = test system: EKVX
HCC 2998 = test system: HCC 2998
HL-60 = test system: HL-60
HOP-62 = test system: HOP-62
K562 = test system: K562
KM-20L2 = test system: KM-20L2
LOX IMVI = test system: LOX IMVI
M14 = test system: M14
M19-MEL = test system: M19-MEL
NCI-H226 = test system: NCI-H226
OVCAR-5 = test system: OVCAR-5
RPMI-8226 = test system: RPMI-8226
RXF 393 = test system: RXF 393
SK-OV-3 = test system: SK-OV-3
SNB-75 = test system: SNB-75
SW-620 = test system: SW-620
UACC-257 = test system: UACC-257
UO-31 = test system: UO-31

Measured: GI50

CCC(=O)c1c(NOC2OCC(OC(C)=O)C(OC(C)=O)C2OC(C)=O)nc(OC)n(C)c1=O (stereo not given)
inactive: COLO 205 > 100 µM | DMS-273 > 100 µM | EKVX > 100 µM | HCC 2998 > 100 µM | HL-60 > 100 µM | HOP-62 > 100 µM | K562 > 100 µM | KM-20L2 > 100 µM | LOX IMVI > 100 µM | M14 > 100 µM | M19-MEL > 100 µM | NCI-H226 > 100 µM | OVCAR-5 > 100 µM | RPMI-8226 > 100 µM | RXF 393 > 100 µM | SK-OV-3 > 100 µM | SNB-75 > 100 µM | SW-620 > 100 µM | UACC-257 > 100 µM | UO-31 > 100 µM

Cc1cc(C)c(C2=NO[C@@H]3[C@H]2C(=O)C=C2N(Cc4ccccc4)CCO[C@@]23O)c(C)c1
inactive: COLO 205 > 100 µM | DMS-273 > 100 µM | EKVX > 100 µM | HCC 2998 > 100 µM | HL-60 > 100 µM | HOP-62 > 100 µM | K562 > 100 µM | KM-20L2 > 100 µM | LOX IMVI > 100 µM | M19-MEL > 100 µM | NCI-H226 > 100 µM | OVCAR-5 > 100 µM | RPMI-8226 > 100 µM | RXF 393 > 100 µM | SK-OV-3 > 100 µM | SNB-75 > 94.2 µM | SW-620 > 100 µM | UACC-257 > 100 µM | UO-31 > 100 µM

CC1CC=CC(O)C1 (stereo not given)
inactive: COLO 205 > 100 µM | DMS-273 > 100 µM | EKVX > 100 µM | HCC 2998 > 100 µM | HL-60 > 100 µM | HOP-62 > 100 µM | K562 > 100 µM | KM-20L2 > 100 µM | LOX IMVI > 100 µM | M19-MEL > 100 µM | NCI-H226 > 100 µM | OVCAR-5 > 100 µM | RPMI-8226 > 100 µM | RXF 393 > 100 µM | SK-OV-3 > 100 µM | SNB-75 > 93.5 µM | SW-620 > 100 µM | UACC-257 > 100 µM | UO-31 > 100 µM

CC(C)C(=O)N1C(=O)O[C@@H](c2ccccc2)[C@H]1C
inactive: COLO 205 > 100 µM | DMS-273 > 100 µM | EKVX > 100 µM | HCC 2998 > 100 µM | HL-60 > 100 µM | HOP-62 > 100 µM | K562 > 100 µM | KM-20L2 > 100 µM | LOX IMVI > 100 µM | M14 > 100 µM | M19-MEL > 100 µM | NCI-H226 > 100 µM | OVCAR-5 > 100 µM | RPMI-8226 > 100 µM | RXF 393 > 84.1 µM | SK-OV-3 > 100 µM | SNB-75 > 100 µM | UACC-257 > 100 µM | UO-31 > 100 µM

COCC1N=C(c2cc(OC)c(OC)c(OC)c2-c2cc3c(cc2[C@@H](C)O)OCO3)O[C@H]1c1ccccc1 (stereo not given in full)
inactive: COLO 205 > 100 µM | DMS-273 > 71.9 µM | EKVX 36.8 µM | HCC 2998 > 100 µM | HL-60 > 100 µM | HOP-62 86.3 µM | K562 > 100 µM | KM-20L2 98.2 µM | LOX IMVI > 100 µM | M19-MEL > 90.8 µM | NCI-H226 > 77.1 µM | OVCAR-5 > 73.8 µM | RPMI-8226 97.5 µM | RXF 393 33.7 µM | SK-OV-3 97.5 µM | SNB-75 25.9 µM | SW-620 > 100 µM | UACC-257 > 100 µM | UO-31 > 100 µM

COc1cc(C2c3cc4c(cc3[C@@H](Nc3cccc([N+](=O)[O-])c3)C3COC(=O)[C@H]23)OCO4)cc(OC)c1O (stereo not given in full)
active: DMS-273 0.615 µM | HL-60 1.05 µM | HOP-62 0.796 µM
inactive: COLO 205 1.35 µM | EKVX 3.56 µM | HCC 2998 2.33 µM | K562 2.94 µM | KM-20L2 3.64 µM | LOX IMVI 1.63 µM | M19-MEL 4.01 µM | NCI-H226 1.85 µM | OVCAR-5 2.16 µM | RPMI-8226 3.05 µM | RXF 393 2.21 µM | SK-OV-3 2.51 µM | SNB-75 4.1 µM | SW-620 2.28 µM | UACC-257 4.73 µM | UO-31 2.23 µM
